In PMC8979514 (Journal of Enzyme Inhibition and Medicinal Chemistry, 2022):
Read-outs that look alike come from different tables or passages of the source.

Experiments:
[1] = molecular target: T1, butyrylcholinesterase (BChE, E.C. 3.1.1.8) (Equus caballus, UniProt P81908); test: biochemical; parameters: species or system equine serum; conditions: for IC50: BChE from equine serum
T1 construct: purchased Sigma Aldrich
Experimental: (§1) [33] Inhibitory activity was tested at room temperature on 96-well plate using Ellman’s method. Lyophilised powders of AChE and BChE were dissolved in phosphate buffer (pH 7.5, 0.1 M) with 1% BSA.
(§2) Each well was filled to a total volume of 330 µL. The content inculded 285 µL of phosphate buffer, 5 µL 2 units/mL of eeAChE/BChE, 10 µL 0.01 M of DTNB, 10 µl of tested compound (for the control wells 10 µL of the phosphate buffer instead of tested compound) and 20 µL (7.5 mM) ATCh/BTCh. The hydrolysis of ATCh/BTCh was initiated by adding it to the well directly before the measurement. The absorbance was recorded at 1 min intervals for 8 min in total. The percent of inhibition was calculated by nonlinear regression analysis of the response–concentration (log) curve as a percentage of the reaction rate of the tested compounds over the control. Data analysis was performed by using GraphPad Prism 5.0 Software to give the IC50 values. The experiment was carried out in triplicate.

[2] = molecular target: T2, Acetylcholinesterase (eeAChE, E.C. 3.1.1.7) (Electrophorus electricus, UniProt O42275); test: biochemical; type: biochemical, electric eel; conditions: for IC50: eeAChE; for Selectivity IC50(eeAChE)/ IC50(BChE): ratio of IC50 values
T2 construct: purchased Sigma Aldrich
Experimental: as §1, §2

[3] = in vitro; type: cell-based, human; conditions: human, 24 h incubation, MTT, mean ± SD, read-out: Cells viability of SH-SY5Y cell line (% of control)
Experimental: (§3) Human neuroblastoma SH-SY5Y and human liver hepatocellular HepG2 cell lines were purchased from the American Type Culture Collections (ATCC). SH-SY5Y cells were cultured in a Dulbecco’s Modified Eagle Medium (DMEM) supplemented with Ham F12 medium (ratio 1:1), whereas HepG2 cells in Eagle’s Minimum Essential Medium (EMEM). Additionally, all culture medium was supplemented with 10% foetal bovine serum (FBS), streptomycin (100 µg/mL) and penicillin (100 U/mL). The cells were seeded into flasks containing supplemented medium and maintained in a humidified atmosphere of 5% CO2 and 95% air at 37 °C. The cell viability assay was performed in confluence of the cells in serum free medium (without FBS) was 80–90%.
(§4) […]. SH-SY5Y cells and HepG2 cells were seeded on 96-well plate with a density of 27–29 × 10^3 cells/well and 12–14 × 10^3/well respectively. […]. The DMSO concentration of every well in final dilutions was equal to or less than 0.1%. After incubation with compounds, MTT was added and 2 h later, the absorbance was measured at 492 nm. The result was expressed as the percentage of control cells (cultured in serum-free medium containing 0.1% of DMSO) which was set to 100%. The MTT test was performed in three independent replications. Data analysis was performed by using GraphPad Prism 5.0 Software.
SH-SY5Y a standard cell line used for determining neurocytotoxic effect of potential drug. Moreover it is well-established in vitro model of neurodegenerative disorders. […].

[4] = in vitro; type: cell-based, human; conditions: human; MTT, 24 h incubation; read-out: Cytotoxicity on HepG2 cells IC50
Experimental: as §3, §4
. HepG2 is a commonly used in vitro model for the investigation of hepatocytotoxic effect of xenobiotics [40]^,[41]. In our study, we evaluated the toxicity of our new analogs against […]. […]

[5] = IC50 BChE, Ellman's method, phosphate buffer pH 7.5, room temperature
[6] = from IC50 values, versus tacrine
[7] = pIC50 ± S.E.M. BChE, value in brackets under the IC50
[8] = IC50 AChE, Ellman's method, phosphate buffer pH 7.5, room temperature
[9] = pIC50 ± S.E.M. AChE, value in brackets under the IC50

T2 sequence (O42275 24-633): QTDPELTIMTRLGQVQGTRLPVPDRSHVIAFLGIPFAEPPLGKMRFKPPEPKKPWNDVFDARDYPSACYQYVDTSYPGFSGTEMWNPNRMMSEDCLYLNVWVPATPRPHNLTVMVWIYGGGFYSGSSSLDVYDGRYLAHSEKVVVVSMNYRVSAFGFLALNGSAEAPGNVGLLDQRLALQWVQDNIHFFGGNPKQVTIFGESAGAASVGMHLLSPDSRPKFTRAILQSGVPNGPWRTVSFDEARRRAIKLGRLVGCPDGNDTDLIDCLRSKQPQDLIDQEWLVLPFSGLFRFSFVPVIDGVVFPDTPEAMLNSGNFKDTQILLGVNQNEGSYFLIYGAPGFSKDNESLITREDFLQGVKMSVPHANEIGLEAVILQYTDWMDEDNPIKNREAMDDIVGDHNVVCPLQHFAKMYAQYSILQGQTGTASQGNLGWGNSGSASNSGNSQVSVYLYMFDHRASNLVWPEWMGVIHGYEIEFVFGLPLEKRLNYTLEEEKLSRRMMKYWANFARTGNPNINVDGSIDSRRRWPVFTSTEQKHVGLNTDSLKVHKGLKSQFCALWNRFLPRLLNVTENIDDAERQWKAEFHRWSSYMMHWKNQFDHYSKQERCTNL
T1 sequence (P81908 whole entry): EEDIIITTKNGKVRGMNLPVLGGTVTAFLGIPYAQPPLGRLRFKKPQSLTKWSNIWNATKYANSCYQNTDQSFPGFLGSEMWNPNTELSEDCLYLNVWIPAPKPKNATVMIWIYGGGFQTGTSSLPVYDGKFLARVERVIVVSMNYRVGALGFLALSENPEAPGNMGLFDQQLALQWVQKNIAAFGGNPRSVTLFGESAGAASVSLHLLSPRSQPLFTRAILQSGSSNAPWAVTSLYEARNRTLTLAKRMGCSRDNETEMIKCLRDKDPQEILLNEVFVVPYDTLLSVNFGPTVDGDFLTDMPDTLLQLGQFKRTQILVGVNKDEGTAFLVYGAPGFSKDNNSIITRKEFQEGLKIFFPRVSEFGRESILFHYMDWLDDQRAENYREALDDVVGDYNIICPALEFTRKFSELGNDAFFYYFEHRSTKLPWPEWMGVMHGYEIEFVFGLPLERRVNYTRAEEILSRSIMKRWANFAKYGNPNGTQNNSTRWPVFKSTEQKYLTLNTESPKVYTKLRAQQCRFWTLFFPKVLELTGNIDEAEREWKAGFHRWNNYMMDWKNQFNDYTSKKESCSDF

SMILES	IC50 [1, 5] [nM]	fold more potent than tacrine against BChE [1, 6] [fold]	IC50 [1, 7] [nM]	IC50 [2, 8] [nM]	IC50 [2, 9] [nM]	Selectivity IC50(eeAChE)/ IC50(BChE) [2]	viability at 24 h, 12.5 µM ([3]; 12.5 µM) [%]	viability at 24 h, 50 µM ([3]; 50 µM) [%]	viability at 24 h, 100 µM ([3]; 100 µM) [%]	IC50 ([1]; Ellman's method, phosphate buffer pH 7.5, room temperature, read-out: IC50 BChE) [nM]	IC50 ([1]; value in brackets under the IC50, read-out: pIC50 ± S.E.M. BChE (converted)) [nM]	IC50 [4] [nM]	IC50 ([2]; Ellman's method, phosphate buffer pH 7.5, room temperature, read-out: IC50 AChE) [nM]	IC50 ([2]; value in brackets under the IC50, read-out: pIC50 ± S.E.M. AChE (converted)) [nM]	viability at 12.5 µM ([3]; 12.5 µM) [%]	viability at 50 µM ([3]; 50 µM) [%]	viability at 100 µM ([3]; 100 µM) [%]	IC50 at 24 h [4] [nM]	fold more potent than tacrine against AChE [2, 6] [fold]
O=P(NCCCCCCCCCCCCNc1c2c(nc3ccccc13)CCCC2)(Oc1ccccc1)Oc1ccccc1 [Compound 13, Diphenyl(12-((1,2,3,4-tetrahydroacridin-9-yl)amino)dodecyl)phosphoramidate]	1.97	12	1.97	9.96	9.95	5.06	40.4 ± 7.6	38.4 ± 7.6	38 ± 3.8	–	–	–	–	–	–	–	–	–	–
CCOP(=O)(NCCCCCCCCCCCCNc1c2c(nc3ccccc13)CCCC2)OCC [Compound 11, Diethyl(12-((1,2,3,4-tetrahydroacridin-9-yl)amino)dodecyl)phosphoramidate]	–	–	–	–	–	0.51	–	–	–	65.5	65.5	50	33.3	33.3	35.4 ± 4.6	35.5 ± 4.1	31.1 ± 6.4	–	–
CCCCOP(=O)(OCCCC)OCCNCCNc1c2c(nc3ccccc13)CCCC2 [Compound 20, Dibutyl(2-((2-((1,2,3,4-tetrahydroacridin-9-yl)amino)ethyl)amino)ethyl)phosphate]	186	–	–	81.6	81.5	0.44	78.9 ± 8.6	79.7 ± 1.1	68.6 ± 14.5	–	–	–	–	–	–	–	–	134000	–
CCCCOP(=O)(NCCCCCCCCNc1c2c(nc3ccccc13)CCCC2)OCCCC [Compound 9, Dibutyl(8-((1,2,3,4-tetrahydroacridin-9-yl)amino)octyl)phosphoramidate]	41.5	–	41.5	8.18	8.18	0.2	77.5 ± 13.5	55.7 ± 11.5	54.6 ± 8.4	–	–	–	–	–	–	–	–	43300	–
O=P(OCCCNc1c2c(nc3ccccc13)CCCC2)(Oc1ccccc1)Oc1ccccc1 [Compound 18, Diphenyl(3-((1,2,3,4-tetrahydroacridin-9-yl)amino)propyl)phosphate]	37.7	–	–	58.6	58.6	1.55	79.5 ± 7.4	71.2 ± 20.5	59 ± 20.3	–	–	–	–	–	–	–	–	53800	–
CCOP(=O)(NCCCCCCCCNc1c2c(nc3ccccc13)CCCC2)OCC [Compound 8, Diethyl(8-((1,2,3,4-tetrahydroacridin-9-yl)amino)octyl)phosphoramidate]	12.9	–	12.9	6.11	6.11	0.48	76.7 ± 5.8	51.6 ± 5.4	52.2 ± 1	–	–	–	–	–	–	–	–	23700	6
CCOP(=O)(NCCCCCCNc1c2c(nc3ccccc13)CCCC2)OCC [Compound 6, Diethyl(6-((1,2,3,4-tetrahydroacridin-9-yl)amino)hexyl)phosphoramidate]	6.75	–	6.76	32.6	32.6	4.82	74.3 ± 4.9	71.7 ± 7.2	67.5 ± 9	–	–	–	–	–	–	–	–	140000	–
O=P(OCCNCCNc1c2c(nc3ccccc13)CCCC2)(Oc1ccccc1)Oc1ccccc1 [Compound 21, Diphenyl(2-((2-((1,2,3,4-tetrahydroacridin-9-yl)amino)ethyl)amino)ethyl)phosphate]	41	–	41	501	501	12.22	52.3 ± 5	42.7 ± 6.4	30.7 ± 1.5	–	–	–	–	–	–	–	–	–	–
